Drawing on patent publication US20120157439A1, “RAF INHIBITOR COMPOUNDS AND METHODS OF USE THEREOF” (GENENTECH, INC., priority 2009, published 2012), this text covers IC50 for 21 compounds.

Broadly, the IC50 is the point on the concentration scale where inhibition reaches its midpoint.

The assay concerns the target T1, V600E full-length B-Raf (Homo sapiens, UniProt P15056, V600E).
T1 construct: 1 μM FSBA-MEK and 20 nM V600E full-length B-Raf; made in house; host or cells: sf9 insect cells (baculovirus)
Briefly: B-Raf IC50 Assay (B-RAF V600E inhibition assay, Example A). Format: biochemical. From the text: Determining the activity of Raf in the sample is possible by a number of direct and indirect detection methods (US 2004/0082014). Activity of human recombinant B-Raf protein may be assessed in vitro by assay of the incorporation of radio labeled phosphate to recombinant MAP kinase (MEK), a known physiologic substrate of B-Raf, according to US 2004/0127496 and WO 03/022840. The activity/inhibition of V600E full-length B-Raf was estimated by measuring the incorporation of radio labeled phosphate from [γ-33P]ATP into FSBA-modified wild-type MEK (see Example A).
Activity of human recombinant B-Raf protein may be assessed in vitro by assay of the incorporation of radio labeled phosphate to recombinant MAP kinase (MEK), a known physiologic substrate of B-Raf, according to U.S. Patent Appl. Publication No. 2004/0127496 and WO 03/022840. Catalytically active human recombinant B-Raf protein is obtained by purification from sf9 insect cells infected with a human B-Raf recombinant baculovirus expression vector.
The activity/inhibition of V600E full-length B-Raf was estimated by measuring the incorporation of radio labeled phosphate from [γ-33P]ATP into FSBA-modified wild-type MEK. The […] assay mixtures contained 25 mM Na Pipes, pH 7.2, 100 mM KCl, 10 mM MgCl2, 5 mM β-glycerophosphate, 100 μM Na Vanadate, 4 μM ATP, 500 nCi [γ-33P]ATP, 1 μM FSBA-MEK and 20 nM V600E full-length B-Raf. Incubations were carried out at 22° C. in a Costar 3365 plate (Corning). Prior to the assay, the B-Raf and FSBA-MEK were preincubated together in assay buffer at 1.5× (20 μL of 30 nM and 1.5 μM, respectively) for 15 minutes, and the assay was initiated by the addition of 10 μL of […]. Following the 60-minute incubation, the assay mixtures were quenched by the addition of 100 μL of 25% TCA, the plate was mixed on a rotary shaker for 1 minute, and the product was captured on a Perkin-Elmer GF/B filter plate using a Tomtec Mach III Harvester. After sealing the bottom of the plate, 35 μL of Bio-Safe II (Research Products International) scintillation cocktail were added to each well and the plate was top-sealed and counted in a Topcount NXT (Packard).

[1] abbreviates: B-Raf V600E assay of Example A: less than 100 nM, read-out: IC50.
Where [2] appears, read: B-Raf V600E assay of Example A: less than about 1 μM, read-out: IC50.
[3] abbreviates: incorporation of radio labeled phosphate from [γ-33P]ATP into FSBA-modified wild-type MEK, 4 μM ATP, 20 nM V600E full-length B-Raf, 60-minute incubation, 22° C., read-out: BRAF V600E IC50.

Read-outs that look alike come from different tables or passages of the source. Bounds are passed on as bounds.

T1 sequence (P15056 whole entry V600E): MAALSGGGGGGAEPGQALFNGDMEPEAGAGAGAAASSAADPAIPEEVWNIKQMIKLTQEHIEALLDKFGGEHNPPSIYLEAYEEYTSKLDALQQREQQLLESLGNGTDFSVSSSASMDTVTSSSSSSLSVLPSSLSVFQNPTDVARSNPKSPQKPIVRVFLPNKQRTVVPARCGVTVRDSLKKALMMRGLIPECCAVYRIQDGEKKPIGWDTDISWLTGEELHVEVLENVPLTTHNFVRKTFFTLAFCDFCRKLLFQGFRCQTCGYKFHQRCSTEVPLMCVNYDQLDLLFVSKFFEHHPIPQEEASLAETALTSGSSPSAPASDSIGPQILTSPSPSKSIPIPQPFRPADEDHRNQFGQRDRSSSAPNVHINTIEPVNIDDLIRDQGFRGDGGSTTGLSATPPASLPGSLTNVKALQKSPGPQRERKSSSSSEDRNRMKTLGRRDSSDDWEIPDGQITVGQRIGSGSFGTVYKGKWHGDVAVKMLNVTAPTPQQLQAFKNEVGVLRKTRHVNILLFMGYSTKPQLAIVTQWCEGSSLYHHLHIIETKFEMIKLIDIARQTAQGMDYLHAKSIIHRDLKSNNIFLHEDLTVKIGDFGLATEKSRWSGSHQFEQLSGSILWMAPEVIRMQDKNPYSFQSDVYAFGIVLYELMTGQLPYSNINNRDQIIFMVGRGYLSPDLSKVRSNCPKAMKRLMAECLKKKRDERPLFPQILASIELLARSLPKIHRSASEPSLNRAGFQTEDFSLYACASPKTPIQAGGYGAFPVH

As to `Nc1ncnc2c(C(=O)Nc3c(F)ccc(NS(=O)(=O)c4ccco4)c3F)csc12` [Example 12, 4-Amino-thieno[3,2-d]pyrimidine-7-carboxylic acid[2,6-difluoro-3-(furan-2-sulfonylamino)-phenyl]-amide], the IC50 under setting [1] is less than 100 nM, the concentration for half-maximal inhibition (IC50) under setting [2] is less than 1000 nM and the IC50 under setting [3] worked out at 0.22 nM.

For `CCCS(=O)(=O)Nc1ccc(Cl)c(NC(=O)c2csc3c(NC4CCC(F)(F)CC4)ncnc23)c1Cl` [Example 80, 4-(4,4-Difluoro-cyclohexyl-amino)-thieno[3,2-d] pyrimidine-7-carboxylic acid [2,6-dichloro-3-(propane-1-sulfonyl-amino)-phenyl]-amide], the IC50 reads like this: under setting [2], less than 1000 nM; under setting [3], 419 nM.

On to `CCCS(=O)(=O)Nc1cc(F)c(F)c(NC(=O)c2csc3c(NC4CCOCC4)ncnc23)c1F` [Example 94, 4-(Tetrahydro-pyran-4-ylamino)-thieno[3,2-d] pyrimidine-7-carboxylic acid [2,3,6-trifluoro-5-(propane-1-sulfonyl-amino)-phenyl]-amide], for which the concentration for half-maximal inhibition (IC50) was less than 1000 nM under setting [2] and 704 nM under setting [3].

Take `CCCS(=O)(=O)Nc1ccc(F)c(NC(=O)c2c[nH]c3c(NC)ncnc23)c1F` [Example 103, 4-Methylamino-5H-pyrrolo[3,2-d]pyrimidine-7-carboxylic acid [2,6-difluoro-3-(propane-1-sulfonylamino)-phenyl]-amide]: the IC50 is less than 1000 nM under setting [2] and 115 nM under setting [3].

With `CCCS(=O)(=O)Nc1ccc(F)c(NC(=O)c2csc3c(NCCOC)ncnc23)c1F` [Example 60, 4-(2-Methoxy-ethylamino)-thieno[3,2-d] pyrimidine-7-carboxylic acid [2,6-difluoro-3-(propane-1-sulfonylamino)-phenyl]-amide], the IC50 runs as follows: under setting [2], less than 1000 nM; under setting [3], 177 nM.

Consider `CCCS(=O)(=O)Nc1ccc(F)c(NC(=O)c2csc3c(N)ncnc23)c1F` [Example 6, 4-Amino-thieno[3,2-d] pyrimidine-7-carboxylic acid [2,6-difluoro-3-(propane-1-sulfonylamino)-phenyl]-amide], for which the IC50 was less than 100 nM under setting [1], less than 1000 nM under setting [2] and 2.89 nM under setting [3].

Regarding `CCCS(=O)(=O)Nc1cc(F)c(F)c(NC(=O)c2csc3c(NC4CC(F)(F)C4)ncnc23)c1F` [Example 93, 4-(3,3-Difluoro-cyclobutyl-amino)-thieno[3,2-d] pyrimidine-7-carboxylic acid [2,3,6-trifluoro-5-(propane-1-sulfonyl-amino)-phenyl]-amide], the IC50 is less than 1000 nM under setting [2] and 118 nM under setting [3].

For `CCCS(=O)(=O)Nc1cc(F)c(F)c(NC(=O)c2csc3c(NCC(F)F)ncnc23)c1F` [Example 90, 4-(2,2-Difluoro-ethylamino)-thieno[3,2-d] pyrimidine-7-carboxylic acid [2,3,6-trifluoro-5-(propane-1-sulfonyl-amino)-phenyl]-amide], the IC50 runs as follows: under setting [1], less than 100 nM; under setting [2], less than 1000 nM; under setting [3], 16 nM.

Consider `CCCS(=O)(=O)Nc1ccc(F)c(NC(=O)c2csc3c(C)ncnc23)c1F` [Example 40, 4-Methyl-thieno[3,2-d]pyrimidine-7-carboxylic acid [2,6-difluoro-3-(propane-1-sulfonylamino)-phenyl]-amide], for which the IC50 under setting [1] is less than 100 nM, the IC50 under setting [2] was less than 1000 nM and the IC50 under setting [3] was 85.5 nM.

For the compound `CCCS(=O)(=O)Nc1ccc(F)c(NC(=O)c2snc3c(N)ncnc23)c1F` [Example 34, 7-Amino-isothiazolo[4,3-d]pyrimidine-3-carboxylic acid [2,6-difluoro-3-(propane-1-sulfonylamino)-phenyl]-amide], the IC50 is, setting by setting: under setting [1], less than 100 nM; under setting [2], less than 1000 nM; under setting [3], 5 nM.

Turning to `CCS(=O)(=O)Nc1ccc(F)c(NC(=O)c2csc3c(N)ncnc23)c1Cl` [Example 4, 4-Amino-thieno[3,2-d] pyrimidine-7-carboxylic acid (2-chloro-3-ethane-sulfonylamino-6-fluoro-phenyl)-amide], the IC50 runs as follows: under setting [1], less than 100 nM; under setting [2], less than 1000 nM; under setting [3], 4.25 nM.

In the case of `CCCS(=O)(=O)Nc1ccc(F)c(NC(=O)c2csc3c(NCC)ncnc23)c1F` [Example 48, 4-Ethylamino-thieno[3,2-d] pyrimidine-7-carboxylic acid [2,6-difluoro-3-(propane-1-sulfonylamino)-phenyl]-amide], the half-inhibitory concentration (IC50) is, setting by setting: under setting [1], less than 100 nM; under setting [2], less than 1000 nM; under setting [3], 11.4 nM.

`CCCS(=O)(=O)Nc1ccc(F)c(NC(=O)c2snc3c(NC4CC4)ncnc23)c1F` [Example 36, 7-(Cyclopropylamino)-N-(2,6-difluoro-3-(propylsulfonamido)phenyl)isothiazolo[4,3-d]pyrimidine-3-carboxamide]: the IC50 is, setting by setting: under setting [2], less than 1000 nM; under setting [3], 194 nM.

For the compound `CCCS(=O)(=O)Nc1ccc(Cl)c(NC(=O)c2csc3cncnc23)c1F` [Example 111, Thieno[3,2-d]pyrimidine-7-carboxylic acid [6-chloro-2-fluoro-3-(propane-1-sulfonylamino)-phenyl]-amide], the IC50 is, setting by setting: under setting [1], less than 100 nM; under setting [2], less than 1000 nM; under setting [3], 21.1 nM.

Take `CC(C)CS(=O)(=O)Nc1ccc(Cl)c(NC(=O)c2csc3c(N)ncnc23)c1F` [Example 22, 4-Amino-thieno[3,2-d] pyrimidine-7-carboxylic acid [6-chloro-2-fluoro-3-(2-methyl-propane-1-sulfonylamino)-phenyl]-amide]: the IC50 is less than 100 nM under setting [1], less than 1000 nM under setting [2] and 2 nM under setting [3].

Regarding `CCCS(=O)(=O)Nc1ccc(Cl)c(NC(=O)c2csc3c(NC#N)ncnc23)c1Cl` [Example 73, 4-Cyano-amino-thieno[3,2-d] pyrimidine-7-carboxylic acid [2,6-dichloro-3-(propane-1-sulfonyl-amino)-phenyl]amide], the IC50 was less than 100 nM under setting [1], less than 1000 nM under setting [2] and 14 nM under setting [3].

Take `CCCS(=O)(=O)Nc1ccc(F)c(NC(=O)c2csc3c(NC4CC4)ncnc23)c1Cl` [Example 43, 4-Cyclopropylamino-thieno[3,2-d]pyrimidine-7-carboxylic acid [2-chloro-6-fluoro-3-(propane-1-sulfonylamino)-phenyl]-amide]: the half-maximal inhibitory concentration (IC50) under setting [1] was less than 100 nM, the half-maximal inhibitory concentration (IC50) under setting [2] was less than 1000 nM and the IC50 under setting [3] was found to be 1.9 nM.

With `CCS(=O)(=O)Nc1ccc(Cl)c(NC(=O)c2csc3c(N)ncnc23)c1F` [Example 3, 4-Amino-thieno[3,2-d] pyrimidine-7-carboxylic acid (6-chloro-3-ethane-sulfonylamino-2-fluoro-phenyl)-amide], the IC50 reads like this: under setting [1], less than 100 nM; under setting [2], less than 1000 nM; under setting [3], 3.89 nM.

In the case of `CCCS(=O)(=O)Nc1ccc(F)c(NC(=O)c2csc3c(NCCF)ncnc23)c1F` [Example 52, 4-(2-Fluoro-ethylamino)-thieno[3,2-d] pyrimidine-7-carboxylic acid [2,6-difluoro-3-(propane-1-sulfonylamino)-phenyl]-amide], the IC50 by setting is: under setting [1], less than 100 nM; under setting [2], less than 1000 nM; under setting [3], 15.7 nM.

For `Nc1ncnc2c(C(=O)Nc3c(F)ccc(NS(=O)(=O)CCCF)c3F)nsc12` [Example 31, 7-Amino-isothiazolo[4,5-d]pyrimidine-3-carboxylic acid [2,6-difluoro-3-(3-fluoro-propane-1-sulfonylamino)-phenyl]-amide], the IC50 by setting is: under setting [1], less than 100 nM; under setting [2], less than 1000 nM; under setting [3], 0.82 nM.

On to `CCCS(=O)(=O)Nc1ccc(F)c(NC(=O)c2csc3c(NCC)ncnc23)c1Cl` [Example 44, 4-Ethylamino-thieno[3,2-d]pyrimidine-7-carboxylic acid [2-chloro-6-fluoro-3-(propane-1-sulfonylamino)-phenyl]-amide], for which the IC50 under setting [1] is less than 100 nM, the IC50 under setting [2] is less than 1000 nM and the IC50 under setting [3] is 8.7 nM.
